In patent US12285434B2, “Therapeutic, preventive, or improvement agent for inflammatory disease and allergic disease” (The University of Tokyo, priority 2018, dated 2025):

Key:
[1] = tested on: histamine-induced vascular permeability in mouse ears; experiment: Modified Miles assay: histamine-induced vascular hyperpermeability (Evans blue extravasation); assay type: in vivo, mouse (C57BL/6); conditions: 15 minutes, before 400 μg histamine
Description: Fifteen (15) minutes after the intracutaneous injection, a vehicle (80% acetone) or histamine (400 μg, manufactured by Molecular Probes) was percutaneously administered to the ventral surface of the ears. To evaluate vascular permeability, Evans blue (50 mg/kg, manufactured by Sigma) was injected intravenously 5 minutes after the administration of histamine. The mice were then euthanized by cervical dislocation 30 minutes after the injection of Evans blue. The ears were dissected, dried at 55° C., and weighed. Extravasated Evans blue present in the ears was extracted in formamide (manufactured by Molecular Probes), and quantified spectrophotometrically (manufactured by PerkinElmer Japan Co., Ltd.) at a wavelength of 610 nm.

[2] = tested on: DSS-induced colitis model mice; experiment: DSS-induced colitis: histologic score and colon edema (wet/dry weight ratio); assay type: in vivo, mouse (C57BL/6); conditions: Day 14; 1 mg/kg/day intraperitoneally on Days 9, 11 and 13
Description: (§1) C57BL/6 strain mice (male, 8 to 12 weeks old) were fed with water containing 2% dextran sodium sulfate (manufactured by MP Bio, hereinafter sometimes referred to as “DSS”) for 4 days to prepare colitis model mice (hereinafter, sometimes referred to as “colitis group” in Examples 7 to 10). The mice taken with DSS for 4 days were fed with normal water from Day 5. The DSS intake start date was defined as Day 1 of the test, and the day before the DSS intake start date was defined as Day 0 of the test. In addition, a group in which C57BL/6 strain mice (male, 8 to 12 weeks old) were fed with normal water was defined as a “healthy group” (the same applies to Examples 8 to 10).
(§2) To investigate the role of 5,6-DiHETE in the healing phase, the colitis model mice prepared in Example 7(1) were intraperitoneally injected with 5,6-DiHETE (manufactured by Cayman Chemical) (50 μg/kg/day) or HC-067047 (manufactured by Cayman Chemical) (1 mg/kg/day) on Days 9, 11 and 13 of the test (hereinafter, sometimes referred to as “5,6-DiHETE-administered group” and “HC-067047-administered group,” respectively, in Examples 9 and 10). HC-067047 is known to inhibit an increase of calcium ion concentration in endothelial cells.
Distal colon sections on Day 14 of the test in the healthy group, colitis group, 5,6-DiHETE-administered group and HC-067047-administered group were fixed in 4% paraformaldehyde for 24 hours, embedded in paraffin and cut into 2 μm-thick sections. Hematoxylin staining and eosin staining of these sections were performed according to a conventional method. The histologic score was then decided according to the description of Kruschewski M. et al., Digestive Diseases and Sciences, 46: 2336-2343 (2001) to evaluate the colitis severity.
The wet/dry weight ratio was used as an index of colon edema (Rachmilewitz D. et al., Gastroenterology, 97: 326-337(1989)). Specifically, the distal colon was collected, and the wet weight was measured. The distal colon was then dried at 60 C for 24 hours, and, thereafter, the dry weight was measured.

[3] = tested on: DSS-induced colitis model mice; experiment: DSS-induced colitis: colitis severity (body weight, fecal score, colon length); assay type: in vivo, mouse (C57BL/6); conditions: 1 mg/kg/day intraperitoneally on Days 9, 11 and 13
Description: as §1
In order to evaluate colitis severity, the fecal condition was evaluated and the body weight was measured daily for the colitis model mice and healthy group prepared in the above item (1). The fecal condition was evaluated based on the following five-grade fecal scores. Specifically, the fecal scores were 0: normal; 1: soft but still formed; 2: very soft; 3: diarrhea; and 4: bloody feces. In addition, the colon length was measured as an index of the colitis severity.
as §2
The colitis severity was determined according to the index and criteria described in Example 7(2).

anaphylaxis model mice = experiment: Histamine-induced anaphylaxis: blood pressure and body temperature; assay type: in vivo, mouse (C57BL/6); conditions: 200 mg/kg intravenously 15 minutes before histamine 50 mg/kg
Description: Histamine (50 mg/kg) lysed in a physiological saline solution was intravenously administered to C57BL/6 strain mice (male, 8 to 12 weeks old) to prepare anaphylaxis model mice (hereinafter, sometimes referred to as “anaphylaxis group”). […] L-NAME is an NO synthesis inhibitor. As indices of anaphylactic symptoms, a body temperature decrease and a blood pressure decrease were observed.

NO production in HUVECs = experiment: Histamine-induced NO production (nitrite and nitrate); assay type: cell-based, human; conditions: pretreatment 10 μM, 15 minutes; histamine 10 μM
Description: (§3) In Examples 4 to 6, human umbilical vein endothelial cells (hereinafter, sometimes referred to as “HUVECs”, manufactured by Lonza) were cultured in EGM-2 (manufactured by Lonza K.K.). These cells (passages 4 to 9) were used for experiments after 4-hour starvation in EBM-2 (manufactured by Lonza K.K.) containing 2% FBS.
The HUVECs were washed three times with HEPES and incubated in HEPES supplemented with 1 mM L-arginine and 10 μM tetrahydrobiopterin. After equilibration for 30 minutes, the medium was exchanged, and the cells were incubated for additional 30 minutes. […] The conditioned media before and after the stimulation (100 μL each) were collected and centrifuged in each amount of 300 g for 3 minutes. The supernatants were collected, and used to measure nitrite and nitrate, as stable metabolites of NO, by an ENO-20 NOx analyzer (manufactured by Eicom Corporation). The degrees of increases of nitrite and nitrate levels after the stimulation were normalized with cellular protein contents.

HUVECs = experiment: Endothelial barrier function: transendothelial electrical resistance (TER); assay type: cell-based, human
Description: as §3
The in vitro endothelial barrier function was evaluated by measuring the transendothelial electrical resistance (hereinafter, sometimes referred to as “TER”) of the HUVECs prepared in the above item (1) over time. Specifically, the transendothelial electrical resistance was measured using an xCELLigence Real-Time Cell Analyzer DP system (manufactured by Roche). The system monitors changes in TER across an interdigitated microelectrode at the bottom of tissue culture E-plates (manufactured by Roche). The HUVECs (8,000 cells) were plated on the E-plates and incubated until confluent. Then, the following operation (a) or (b) was performed.
(a) Each reagent was added to plates on which the HUVECs were cultured, so as to give a vehicle, 1 U/mL thrombin, 1 μM forskolin, or 0.1 μM or 0.3 μM 5,6-DiHETE (FIGS. 4A and 4B).
(b) A vehicle or […] was added to plates on which the HUVECs were cultured, so as to attain 10 μM. […] Thirty (30) minutes after the addition, 10 μM histamine was added to each plate 30 minutes after the addition (FIGS. 4C and 4D).
In the above operations (a) and (b), the TER was measured every 60 seconds. For normalization, the cell index value at each time point is shown as a ratio relative to the initial value. The maximum normalized cell index after stimulation was quantified and represented as maximal response. Note that it is known that the disruption of the endothelial barrier function lowers the TER, but that the enhancement of the endothelial barrier function increases the TER.

mouse aortae = experiment: Measurement of vascular contraction of aorta (aortic ring specimens); conditions: cumulative addition 0.001, 0.01, 0.1 and 1 μM
Description: After excision of the thoracic aortae from untreated mice and removal of fat and connective tissue, the aortae were cut into rings to prepare aortic ring specimens. The ring specimens were immersed in a liquid tank filled with a normal nutrient solution (physiological saline solution containing 136.9 mM NaCl, 5.4 mM KCl, 5.5 mM glucose, 23.8 mM NaHCO3, 1.5 mM CaCl2, 1.0 mM MgCl2 and 0.01 mM EDTA), and two stainless hooks were penetrated through the lumens of the ring specimens. One end of each of the stainless hooks was fixed, and the other end thereof was connected to a force-displacement transducer (T7-30-240, manufactured by Orientec Co., Ltd.) connected to a strain amplifier (3134 strain AMPL, manufactured by Yokogawa Test & Measurement Corporation). Then, the following operation (a), (b) or (c) was performed.
(a) Norepinephrine (manufactured by Sigma) was cumulatively added into the liquid tank containing the ring specimens after stabilization of each contraction (every about 30 minutes) so as to attain 0.001 μM, 0.01 μM, 0.1 μM and 1 μM, and this group was designated as a “norepinephrine-administered group” (n=4) (FIG. 3A). 5,6-DiHETE was cumulatively added into the liquid tank containing the ring specimen after stabilization of each contraction (every about 30 minutes) so as to attain 0.001 μM, 0.01 μM, 0.1 μM and 1 μM, and this group was designated as a “5,6-DiHETE-administered group” (n=4) (FIG. 3A).
(b) Norepinephrine was added into the liquid tank containing the ring specimens so as to attain 0.3 μM, and precontraction was induced by administration of norepinephrine (FIG. 3B). Then, after the contraction by the administration of norepinephrine was stabilized, acetylcholine (manufactured by Sigma) was cumulatively added after stabilization of each relaxation reaction (every about 15 minutes) so as to attain 0.03 μM, 0.1 μM, 0.3 μM and 1 μM, and this group was designated as an “acetylcholine-administered group” (FIG. 3B). After the contraction by the administration of norepinephrine was stabilized, 5,6-DiHETE was cumulatively added every about 15 minutes so as to attain 0.001 μM, 0.01 μM, 0.1 μM and 1 μM, and this group was designated as a “5,6-DiHETE-administered group” (n=4) (FIG. 3B).
(c) In order to verify the effect of 5,6-DiHETE on the acetylcholine administration, norepinephrine was added into the liquid tank containing the ring specimens so as to attain 1 μM. After the contraction by the administration of norepinephrine was stabilized, 5,6-DiHETE or a vehicle (solvent alone) was added so as to attain 1 μM. […]
In the above operations (a) to (c), tension (contractile force) generated in the aortic ring specimens was measured isometrically over time using the above force-displacement transducer under a resting tension of 3 mN, and recorded.

## CC/C=C\C/C=C\C/C=C\C/C=C\C=C\C(O)C/C=C\CCC(=O)O (stereo not drawn) [7-HDoHE]
[1]; pretreatment 0.1 μg/ear
  effect on histamine-induced dye extravasation: did not affect histamine-induced dye extravasation

## CC/C=C\CC(O)/C=C/C=C\CCCCCCCC(=O)O (stereo not drawn) [13-HOTrE]
[1]; pretreatment 0.1 μg/ear
  effect on histamine-induced dye extravasation: did not affect histamine-induced dye extravasation

## Cc1c(C(=O)Nc2cccc(C(F)(F)F)c2)cc(-c2ccccc2)n1CCCN1CCOCC1 [HC-067047, reference compound]
[2]
  colon edema, wet/dry weight ratio: 5.0±0.1
  histologic score of colitis: 2.8±0.4
[3]
  recovery from colitis as compared with the colitis group: promoted in recovery from colitis

## COC(=O)[C@@H](N)CCCNC(=N)N[N+](=O)[O-] [L-NAME]
Anaphylaxis model mice
  blood pressure: 106.6±8.8 mmHg
  body temperature decrease: −0.8±0.2 °C

## [Cl][La]([Cl])[Cl] [LaCl3]
[1]; pretreatment 250 μg/ear
  effect on histamine-induced dye extravasation: significantly inhibited dye extravasation

## CN(C)CCOC(c1ccccc1)c1ccccc1 [diphenhydramine, reference compound]
NO production in HUVECs
  histamine-induced NO production: abrogated
HUVECs; 10 μM pretreatment before histamine 10 μM
  histamine-induced reduction of TER: abrogated

## NC[C@H](O)c1ccc(O)c(O)c1 [norepinephrine, reference compound]
Mouse aortae
  contraction of aorta: contracted in a concentration-dependent manner

## thrombin
HUVECs; 1 U/mL, alone
  change of TER: significantly lowered the TER
